According to PMC10714400, “Antimicrobial Peptide–Peptoid Hybrids with and without Membrane Disruption” (ACS Infectious Diseases, 2023):
Converted amounts (≈) assume the structure as drawn. Where a SMILES comes first, the peptide text is derived from it. [ ]: non-standard residue; d: D form. Nleu = CC(C)CNCC(=O)O; Nlys = NCCCCNCC(=O)O

Experiments:
P. aeruginosa PA14 = conditions: Table S3; […] MH at pH 8.5, 16-20 hours at 37 °C
Description: (§1) Antimicrobial activity was assayed for all the peptide–peptoids against P. aeruginosa PAO1, K. pneumoniae NCTC418, E. coli W3110, A. baumannii ATCC 19606, methicillin-resistant S. aureus COL (MRSA), and for selected peptides on P. aeruginosa PA14 and the polymyxin-B-resistant derivatives PA14 4.13, PA14 4.18, PA14 2P4, as well as the clinical isolates ZEM-1A and ZEM9A, K. pneumoniae OXA-48, S. aureus Newman, Enterobacter cloacae, Stenotrophomonas maltophilia, Burkholderia cenocepacia, and Staphylococus epidermidis. To determine the Minimal Inhibitory Concentration (MIC), the Broth Microdilution method was used.[72] A colony of bacteria was picked and grown in LB medium overnight at 37 °C.
(§2) To each well was finally added 4 μL of the diluted bacterial suspension (see above), corresponding to approximately 5 × 10^5 CFU. For each test, two columns of the plate were kept for sterility control (medium only), growth control (medium with bacterial inoculum, no compound). The positive control, Polymyxin B (starting with a concentration of 16 μg/mL) in MH medium with bacterial inocula, was introduced in the two lines of the plate. […] Next, 15 μL of 3-(4,5-dimethylthiazol-2-yl)-2,5-diphenyltetrazolium bromide (MTT)[73] (1 mg/mL in sterilized MilliQ deionized water) were added to each well, and the plates were incubated for 20–30 min at room temperature. The minimal inhibitory concentration (MIC) was defined as the lowest concentration of the compound that inhibits the visible growth of the tested bacteria (yellow) with the unaided eye.

S. aureus Newman = conditions: Table S3; […] MH at pH 8.5
Description: as §1, §2

[1] = Circular dichroism, α-helical content; type: physicochemical; conditions: 0.1 mg/mL; for CD %α with 5 mM DPC: 10 mM phosphate buffer pH 7.4, 5 mM DPC; for CD %α with 20% TFE: 10 mM phosphate buffer pH 7.4, 20% TFE
[2] = Lipid vesicle leakage assay; conditions: 10 mM TRIS, 107 mM NaCl, pH 7.4
Description: (c) Vesicle leakage assay for a selection of compounds.
EYPG - EB11 1 EYPC - EB11
Figure S2: Vesicle leakage experiments using 5(6)-carboxyfluorescein induced by peptides. EYPG and EYPC
compound was added after 45 sec. After 240 seconds, 30 µL Triton X-100 1.2% was added for full release of […]

[3] = test system: human red blood cells (hRBC); experiment: Minimum hemolytic concentration (MHC); type: cell-based
Description: We also measured minimal hemolysis concentrations (MHC) on human red blood cells by serial 2-fold dilution as an indication of toxicity against eukaryotic cells (Table 1).

PA14 4.18 (pmrB) = conditions: CSV; […] MH at pH 8.5
Description: as §1
(§3) To each well was finally added 4 μL of the diluted bacterial suspension (see above), corresponding to approximately 5 × 10^5 CFU. For each test, two columns of the plate were kept for sterility control (medium only), growth control (medium with bacterial inoculum, no compound). The positive control, Polymyxin B (starting with a concentration of 16 μg/mL) in MH medium with bacterial inocula, was introduced in the two lines of the plate. The plates were incubated at 37 °C for ca. 18 h under static conditions. Next, 15 μL of 3-(4,5-dimethylthiazol-2-yl)-2,5-diphenyltetrazolium bromide (MTT)[73] (1 mg/mL in sterilized MilliQ deionized water) were added to each well, and the plates were incubated for 20–30 min at room temperature. The minimal inhibitory concentration (MIC) was defined as the lowest concentration of the compound that inhibits the visible growth of the tested bacteria (yellow) with the unaided eye.

PA14 2P4 (pmrB) = conditions: CSV; […] MH at pH 8.5
Description: as §1, §3

A. baumannii ATCC19606 = test system: A. baumannii ATCC19606
Description: as §1, §3

PA14 4.13 (phoQ) = conditions: CSV; […] MH at pH 8.5
Description: as §1, §3

E. coli W3110 = test system: E. coli W3110
Description: as §1, §3

K. pneumoniae NCTC418 = test system: K. pneumoniae NCTC418
Description: as §1, §3

P. aeruginosa PAO1 = test system: P. aeruginosa PAO1
Description: as §1, §3

S. aureus COL (MRSA) = test system: S. aureus COL (MRSA)
Description: as §1, §3

## CC(C)C[C@H](NC(=O)CN(CC(C)C)C(=O)[C@H](CCCCN)NC(=O)CNCCCCN)C(=O)N(CCCCN)CC(=O)N[C@@H](CC(C)C)C(=O)N(CC(=O)N[C@@H](CCCCN)C(=O)N(CC(=O)N[C@@H](CC(C)C)C(=O)N(CC(N)=O)CC(C)C)CC(C)C)CC(C)C [EB10, kKlLkLlKlLl] (H-[Nlys]K[Nleu]L[Nlys]L[Nleu]K[Nleu]L[Nleu]-NH2)
P. aeruginosa PA14
  MIC P. aeruginosa PA14: 4 µg/mL (≈ 3.03 µM)
S. aureus Newman
  MIC S. aureus Newman: 8 µg/mL (≈ 6.05 µM)
[1]; DichroWeb, Contin-LL
  CD %α with 5 mM DPC: 11/11%
  CD %α with 20% TFE: 11/11%
[1]; Table S2
  CD %α with 5 mM DPC: 11%
  CD %α with 20% TFE: 11%
[2]; egg yolk phosphatidyl choline vesicles
  Vesicle leakage activity on EYPC vesicles: no activity
[2]; fluorescein-loaded anionic EYPG vesicles
  Vesicle leakage activity on EYPG vesicles: weak or no vesicle leakage activity
[3]
  Hemolysis: none of them showed any measurable hemolysis
  MHC: >2000 µg/mL
PA14 4.18 (pmrB)
  MIC P. aeruginosa PA14 4.18, […] MH at pH 8.5: 8 ug/mL
PA14 2P4 (pmrB)
  MIC P. aeruginosa PA14 2P4, […] MH at pH 8.5: 8 ug/mL
A. baumannii ATCC19606; ATCC19606, 4 h, pH 7.4
  MIC A. baumannii ATCC19606, full MH at pH 7.4: >32 ug/mL
A. baumannii ATCC19606; ATCC19606, 4 h, pH 8.5
  MIC A. baumannii ATCC19606, full MH at pH 8.5: >32 ug/mL
A. baumannii ATCC19606; Table S2, […] MH, pH 7.4
  MIC A. baumannii ATCC19606 […] 7.4: 16 µg/mL (≈ 12.1 µM)
A. baumannii ATCC19606; Table S2, full MH, pH 7.4
  MIC A. baumannii ATCC19606 Full MH 7.4: > 32 µg/mL
A. baumannii ATCC19606; Table S2, full MH, pH 8.5
  MIC A. baumannii ATCC19606 Full MH 8.5: > 32 µg/mL
PA14 4.13 (phoQ)
  MIC P. aeruginosa PA14 4.13, […] MH at pH 8.5: 4 ug/mL
E. coli W3110; CSV, […] MH at pH 8.5
  MIC E. coli W3110, […] MH at pH 8.5: 3 ug/mL
E. coli W3110; CSV, full MH at pH 7.4
  MIC E. coli W3110, full MH at pH 7.4: >32 ug/mL
E. coli W3110; Table S2, […] MH, pH 7.4
  MIC E. coli W3110 […] 7.4: 2 µg/mL (≈ 1.51 µM)
E. coli W3110; Table S2, […] MH, pH 8.5
  MIC E. coli W3110 […] 8.5: 2 to 4 µg/mL
E. coli W3110; Table S2, full MH, pH 7.4
  MIC E. coli W3110 Full MH 7.4: > 32 µg/mL
E. coli W3110; Table S2, full MH, pH 8.5
  MIC E. coli W3110 Full MH 8.5: 32 µg/mL (≈ 24.2 µM)
E. coli W3110; diluted MH ([…] MH, pH 8.5) per Table 1 footnote b, 16–20 h at 37 °C
  MIC E. coli W3110 […]: 2 to 4 µg/mL
K. pneumoniae NCTC418; NCTC418, 4 h, pH 7.4
  MIC K. pneumoniae NCTC418, full MH at pH 7.4: >32 ug/mL
K. pneumoniae NCTC418; NCTC418, 4 h, pH 8.5
  MIC K. pneumoniae NCTC418, full MH at pH 8.5: >32 ug/mL
K. pneumoniae NCTC418; Table S2, […] MH, pH 7.4
  MIC K. pneumoniae NCTC418 […] 7.4: > 32 µg/mL
K. pneumoniae NCTC418; Table S2, […] MH, pH 8.5
  MIC K. pneumoniae NCTC418 […] 8.5: 32 µg/mL (≈ 24.2 µM)
K. pneumoniae NCTC418; Table S2, full MH, pH 7.4
  MIC K. pneumoniae NCTC418 Full MH 7.4: > 32 µg/mL
K. pneumoniae NCTC418; Table S2, full MH, pH 8.5
  MIC K. pneumoniae NCTC418 Full MH 8.5: > 32 µg/mL
P. aeruginosa PAO1; PAO1, 4 h, pH 7.4
  MIC P. aeruginosa PAO1, full MH at pH 7.4: >32 ug/mL
P. aeruginosa PAO1; PAO1, 4 h, pH 8.5
  MIC P. aeruginosa PAO1, full MH at pH 8.5: >32 ug/mL
P. aeruginosa PAO1; Table S2, […] MH, pH 7.4
  MIC P. aeruginosa PAO1 […] 7.4: 4 µg/mL (≈ 3.03 µM)
P. aeruginosa PAO1; Table S2, […] MH, pH 8.5
  MIC P. aeruginosa PAO1 […] 8.5: 4 µg/mL (≈ 3.03 µM)
P. aeruginosa PAO1; Table S2, full MH, pH 7.4
  MIC P. aeruginosa PAO1 Full MH 7.4: > 32 µg/mL
P. aeruginosa PAO1; Table S2, full MH, pH 8.5
  MIC P. aeruginosa PAO1 Full MH 8.5: > 32 µg/mL
S. aureus COL (MRSA); COL, 4 h, pH 7.4
  MIC S. aureus COL (MRSA), full MH at pH 7.4: >32 ug/mL
S. aureus COL (MRSA); Table S2, […] MH, pH 7.4
  MIC S. aureus COL (MRSA) […] 7.4: 32 µg/mL (≈ 24.2 µM)
S. aureus COL (MRSA); Table S2, […] MH, pH 8.5
  MIC S. aureus COL (MRSA) […] 8.5: 8 µg/mL (≈ 6.05 µM)
S. aureus COL (MRSA); Table S2, full MH, pH 7.4
  MIC S. aureus COL (MRSA) Full MH 7.4: > 32 µg/mL
S. aureus COL (MRSA); Table S2, full MH, pH 8.5
  MIC S. aureus COL (MRSA) Full MH 8.5: 32 µg/mL (≈ 24.2 µM)
